Test results taken from patent publication US11802107B2, “Compounds and methods of use” (Signum Biosciences, Inc., priority 2017, dated 2023).
Values after ≈ are worked out from the molar mass of the structure shown.

Assays:
[1] = tested on: P. acnes (ATCC 6919) biofilms; assay: P. acnes biofilm eradication (MBEC), crystal violet; format: cell-based, Propionibacterium acnes; settings: 24 hours, ≥80% eradication vs vehicle
Method: P. acnes (ATCC® 6919™) was cultured as described above. Bacteria biofilms were established by seeding P. acnes cultures in 96-well plates and incubating for 24 hours without agitation. Later, biofilms were incubated with test materials for 24 hours. Remaining biofilms were washed and stained with crystal violet. […] The absorbance was measured at 595 nm in a microplate reader. […] Results from disk diffusion susceptibility testing (Kirby-Bauer Method) after 72 hours incubation were also obtained.

IL-17 = assay: P. acnes-induced IL-17 protein on human PBMCs (ELISA); format: cell-based; settings: PBMC, PBMCs + live P. acnes 1:1, test material 30 PM, 24 hours
Method: (§1) Cryopreserved human Peripheral Blood Mononuclear cells (PBMCs) from healthy adult donors were obtained from Zen Bio, Inc (Cat No. SER-PBMC-F). Cells were cultured in 12-well plates with lymphocyte media (Cat No. LYMPH-1) and incubated with test materials ([…]) and live P. acnes (ATCC® 6919TM) at 1:1 PBMC: P. acnes bacteria ratio for 24 hours at 37° C. and 5% CO2. After incubation, cell media supernatants were harvested and used to measure pro-inflammatory cytokine levels (IL-8, TNF-α, IL-1b, IL-17) using ELISA kits (BD Biosciences® #557966, #555212, #555244; R&D Systems® #DY317). Total RNA was extracted from cells using the RNAqueous® kit (Ambion®; Cat No. 1912) and cDNA was obtained using the High Capacity RNA-to-cDNA kit (Applied Biosystems®; Cat No. 4387406). Quantitative PCR (qPCR) was performed using the TaqMan® Fast Advanced Master Mix (Applied Biosystems®; Cat No. 4444556) and specific TaqMan®-probes human gene primers CXCL8 (IL-8), IL1B (IL-1b), TNF (TNF-α), IL17A (IL-17A) and GAPDH to calculate the relative gene fold expression change per treatment. Gene expression analysis was performed using the comparative Ct method (also known as the 2-[delta][delta]Ct) approach by comparing the Ct values of P. acnes-only treated cells with the untreated samples and normalized to GAPDH gene expression as endogenous housekeeping gene.

HCAP18 = assay: NHEK antimicrobial peptide gene expression, hCAP18; format: cell-based, human; settings: 10 μM, 24 hours, qPCR, normalized to GAPDH
Method: (§2) Normal human epidermal keratinocytes (NHEKs) from neonatal donors were obtained from Thermo-Fisher (Cat No. C-001-5C). Cells were cultured in 6-well plates for 24 hours before treatments with EpiLife media (Cat No. MEPI500CA) supplemented with keratinocytes growth supplement (Cat No. 50015). On Day 2, media was removed and incubated with test materials (10 μM) for 24 hours at 37° C. and 5% CO2. On Day 3, total RNA was extracted from cells using the RNAqueous® kit (Ambion®; Cat No. 1912) and cDNA was obtained using the High Capacity RNA-to-cDNA kit (Applied Biosystems®; Cat No. 4387406). Quantitative PCR (qPCR) was performed using the TaqMan® Fast Advanced Master Mix (Applied Biosystems®; Cat No. 4444556) and specific TaqMan®-probes human gene primers DEFB4B (hBD2), DEFB103 (hBD3), HCAP18 and GAPDH to calculate the relative gene fold expression change per treatment. Gene expression analysis was performed using the comparative Ct method (also known as the 2-[delta][delta]Ct) approach by comparing the Ct values of the treated samples with the untreated samples and normalized to GAPDH gene expression as endogenous housekeeping gene. Results were represented as fold-expression/untreated cells.

TNF-α = assay: P. acnes-induced TNF-α protein on human PBMCs (ELISA); format: cell-based; settings: PBMCs + live P. acnes 1:1, test material 30 PM, 24 hours
Method: as §1

IL-1b = assay: P. acnes-induced IL-1b protein on human PBMCs (ELISA); format: cell-based; settings: PBMC, PBMCs + live P. acnes 1:1, test material 30 PM, 24 hours
Method: as §1

IL-8 [2] = assay: P. acnes-induced IL-8 protein on human PBMCs (ELISA); format: cell-based; settings: PBMCs + live P. acnes 1:1, test material 30 PM, 24 hours
Method: as §1

DEFB103 (hBD3) = assay: NHEK antimicrobial peptide gene expression, hBD3; format: cell-based, human; settings: 10 μM, 24 hours, qPCR, normalized to GAPDH
Method: as §2

DEFB4B (hBD2) = assay: NHEK antimicrobial peptide gene expression, hBD2; format: cell-based, human; settings: 10 μM, 24 hours, qPCR, normalized to GAPDH
Method: as §2

P. acnes (ATCC 6919) [3] = assay: Minimal inhibitory concentration (MIC) against P. acnes; format: cell-based, Propionibacterium acnes; settings: Cutibacterium acnes, ATCC6919, 72 h, P. acnes ATCC 6919, 10^6 CFU/mL, read-out: MIC
Method: To determine minimal inhibitory concentration (MIC), reagents were dissolved in vehicle (5% v/v) and then added to bacteria suspension. P. acnes (ATCC® 6919TM) at 10^6 CFU/mL was incubated with test materials at the concentrations of two-fold serial dilution (0.25-500 μg/mL) and incubated for 72 hours (P. acnes).

P. acnes (ATCC 6919) [4] = assay: Minimal bactericidal concentration (MBC) against P. acnes; format: cell-based, Propionibacterium acnes; settings: Cutibacterium acnes, ATCC6919; P. acnes 10^7 CFU/mL, in PBS, anaerobic conditions
IL-5 = assay: T-cell receptor (anti-CD3/CD28)-induced IL-5 on PBMCs; format: cell-based; settings: Homo sapiens, PBMC, anti-CD3/CD28 beads, 24 hours, ELISA, read-out: TCR-PBMCs IL-5 Protein IC50
Method: (§3) Cryopreserved human Peripheral Blood Mononuclear cells (PBMCs) from healthy adult donors were obtained from Zen Bio, Inc (Cat No. SER-PBMC-F). Cells were cultured in 96-well plates with lymphocyte media (Cat No. LYMPH-1) and were pre-treated with test materials (≤100 μM) for 2 hours and later co-treated with test materials and anti-CD3/CD28 beads (Thermo-Fisher; Cat No. 11131D) at 1:0.4 PBMC:bead ratio for 24 hours at 37° C. and 5% CO2. After incubation, cell media supernatants were harvested and used to measure cytokine levels (IL-4, IL-5, IL-10) using ELISA kits (BD Biosciences® #555194, #555157; R&D Systems® #DY317). Results were represented as percent of inhibition relative to untreated and anti-CD3/CD28 beads-only treated cells. IC50 values were determined by non-linear regression analysis using the four-parameter logistic equation.

Balb/C mice = assay: Oxazolone-induced delayed-type hypersensitivity (DTH) in vivo model; settings: Mus musculus, topical to ears @ 3% w/v, 24 hours, read-out: Edema % inhibition
Method: Inbred male Balb/C mice were purchased from Hilltop Lab Animals (Scottdale, PA) and were used between 8 and 10 weeks of age. Mice backs were shaved and 100 μl of 3% v/v Oxazolone (Sigma Aldrich, Cat No. E0753) in acetone/olive oil (4:1) was applied to dorsal skin for sensitization. On Day 7, ears were challenged with 0.5% v/v Oxazolone and 30 minutes after challenge, test materials at 3% w/v were applied to ears (10 μl applied both to the dorsal and ventral surfaces of the mouse ear using a solvent pipette) and 24 hours later, skin thickness (edema) was measured. A 6-mm punch biopsy was obtained from each ear, snap frozen in liquid nitrogen. Ear skin biopsy punches were pulverized using FastPrep®-24 Biopulverizer (MP Biomedical, CatNo. 116004500) and Lysing Matrix A tubes (CatNo. 16910050). Protein extracts were obtained using 500 μL/tissue of cold T-PER buffer (ThermoFisher, CatNo. 78510) with Protease inhibitors (Sigma-Aldich, CatNo. 58820-20TAB). Soluble protein fractions were used to measure cytokine levels (IL-4) using ELISA kit (BD Biosciences® #555232). Results were represented as percent of inhibition relative to unsensitized and sensitized-only treated animals. Vehicle for presently disclosed compounds was 60:40 H2O:EtOH and 1:1 Acetone:EtOH for AN2718. (n=5-15 animals per treatment group).
Compound C was further analyzed at various dosages against 0.4 mg/ear of […] by the above protocol, data representing the average±S.E. of cumulative data from three independent experiments (n=12-15 mice per group) is shown below: […]

IL-4 = assay: T-cell receptor (anti-CD3/CD28)-induced IL-4 on PBMCs; format: cell-based; settings: Homo sapiens, PBMC, anti-CD3/CD28 beads, 24 hours, ELISA, read-out: TCR-PBMCs IL-4 Protein IC50
Method: as §3

IL-10 = assay: T-cell receptor (anti-CD3/CD28)-induced IL-10 on PBMCs; format: cell-based; settings: Homo sapiens, PBMC, anti-CD3/CD28 beads, 24 hours, ELISA, read-out: TCR-PBMCs IL-10 Protein IC50
Method: as §3

TNF (TNF-α) = assay: P. acnes-induced TNF-α gene on human PBMCs (qPCR); format: cell-based; settings: PBMC, PBMCs + live P. acnes 1:1, test material 30 PM, 24 hours, read-out: TNFa-Gene % inhibition
Method: as §1

IL1B (IL-1b) = assay: P. acnes-induced IL-1b gene on human PBMCs (qPCR); format: cell-based; settings: PBMC, PBMCs + live P. acnes 1:1, test material 30 PM, 24 hours
Method: as §1

IL17A (IL-17A) = assay: P. acnes-induced IL-17 gene on human PBMCs (qPCR); format: cell-based; settings: PBMC, PBMCs + live P. acnes 1:1, test material 30 PM, 24 hours
Method: as §1

CXCL8 (IL-8) = assay: P. acnes-induced IL-8 gene on human PBMCs (qPCR); format: cell-based; settings: PBMC, PBMCs + live P. acnes 1:1, test material 30 PM, 24 hours
Method: as §1

IL-8 [5] = assay: Peptidoglycan (PGN)-induced IL-8 on NHEKs; format: cell-based, human; settings: Homo sapiens; NHEK, PGN 10 μg/mL, 24 hours, ELISA; read-out: PGN-NHEK 1L-8 Protein IC50
Method: (§4) Normal human epidermal keratinocytes (NHEKs) from neonatal donors were obtained from Thermo-Fisher (Cat No. C-001-5C). Cells were cultured in 96-well plates for 24 hours with EpiLife media (Cat No. MEPI500CA) supplemented with keratinocytes growth supplement (Cat No. S0015). On Day 2, media was removed and replaced with supplement-depleted medium for 24 hours. On Day 3, media was removed and cells were pre-treated with test materials (≤1 μM) for 2 hours and later co-treated with test materials and PGN (Sigma Aldrich, Cat No. 77140) at 10 μg/mL and incubated for 24 hours at 37° C. and 5% CO2. PGN is a TLR-2 agonist. After incubation, cell media supernatants were harvested and used to measure pro-inflammatory cytokine levels (IL-8) using ELISA kit (BD Biosciences® #555244). Results were represented as percent of inhibition relative to untreated and PGN-only treated cells. IC50 values were determined by non-linear regression analysis using the four-parameter logistic equation.

IL-8 [6] = assay: P. acnes-induced IL-8 on human NHEKs; format: cell-based; settings: Homo sapiens; NHEK, live P. acnes 10^7 CFU, 24 hours, ELISA; read-out: P. acnes-NHEK IL-8 Protein IC50
Method: as §4, with “([…])” for “(≤1 μM)”, “live P. acnes (ATCC® 6919TM)” for “PGN (Sigma Aldrich, Cat No. 77140)”, “10^7 CFU” for “10 μg/mL and incubated”, “CO2.” for “CO2. PGN is a TLR-2 agonist.”, “kits” for “kit”, “P. acnes-only” for “PGN-only”

Compound | MBEC [1] | inhibition at 30 pM (IL-17) [%] | hCAP18 gene expression (HCAP18) | TNFa-Protein % inhibition (TNF-α) [%] | inhibition at 30 pM (IL-1b) [%] | IL-8 Protein % inhibition (IL-8 [2]) [%] | hBD3 gene expression (DEFB103 (hBD3)) | hBD2 gene expression (DEFB4B (hBD2)) | MIC (P. acnes (ATCC 6919) [3]) [µg/mL] | MBC (P. acnes (ATCC 6919) [4]) [µg/mL] | IC50 (IL-5) [µM] | inhibition in vivo at 3 % strength (Balb/C mice) [%] | IC50 (IL-4) [µM] | IC50 (IL-10) [µM] | inhibition at 30 pM (TNF (TNF-α)) [%] | inhibition at 30 pM (IL1B (IL-1b)) [%] | inhibition at 30 pM (IL17A (IL-17A)) [%] | inhibition at 30 pM (CXCL8 (IL-8)) [%] | IC50 (IL-8 [5]) [µM] | IC50 (IL-8 [6]) [µM]
O=C(O)CCCCCCCC(=O)O [Azelaic Acid, reference compound] | 8000 μg/mL and (42503) μM | 0 | 1.1 Fold-expression/untreated cells | 0 | 66 | 43 | 0.9 Fold-expression/untreated cells | 1.8 Fold-expression/untreated cells | 1000 (≈ 5310 µM) | > 2000 |  |  |  |  |  |  |  |  |  | 
CSCCC(NC(C)=O)C(=O)NC(CSC/C=C(\C)CCCC(C)CCCC(C)CCCC(C)C)C(=O)O (centres unmarked) [Compound B] |  |  |  |  |  |  |  |  | 24 (≈ 41.9 µM) |  | 50 | 48 | 52 | 46 |  |  |  |  |  | 
C/C(=C\CSCC(NC(=O)CCCCCCCCC(=O)O)C(=O)O)CCCC(C)CCCC(C)CCCC(C)C (centres unmarked) [D] |  |  |  |  |  |  |  |  | > 250 |  | > 100 | 53 | > 100 | 100 |  |  |  |  |  | 
CCN(CC(=O)O)C(=O)NC(CSC/C=C(\C)CCCC(C)CCCC(C)CCCC(C)C)C(=O)O (centres unmarked) [I] |  |  |  |  |  |  |  |  | > 16 |  |  | 36 |  |  | 0 | 86 | 7 | 52 |  | 
CC(=O)NC(CC(=O)NC(CSC/C=C(\C)CCCC(C)CCCC(C)CCCC(C)C)C(=O)O)C(=O)O (centres unmarked) [Q] |  |  |  |  |  |  |  |  | 125 (≈ 224 µM) |  |  |  |  |  | 0 | 59 | 72 | 14 |  | 
O=C(O)c1ccccc1O [Salicylic Acid, reference compound] | >8000 μg/mL and (>57920) μM | 0 | 1.2 Fold-expression/untreated cells | 0 | 40 | 0 | 1.2 Fold-expression/untreated cells | 1.0 Fold-expression/untreated cells | 1000 (≈ 7240 µM) | 2000 (≈ 14500 µM) |  |  |  |  |  |  |  |  | > 1 | 
C/C(=C\CSCC(NC(=O)c1cc(O)c(O)c(O)c1)C(=O)O)CCCC(C)CCCC(C)CCCC(C)C (centres unmarked) [V] |  |  |  |  |  |  |  |  | > 4 | > 25 |  | 5 |  |  | 0 | 83 | 0 | 46 |  | 0.003
